As usually defined, the GI50 is the concentration giving 50% growth inhibition.

Test systems include U-251; MDA-MB-231; HOP-62; SK-MEL-28; PC-3; A549; SR; UO-31; LOX IMVI; UACC-62; SK-MEL-2; BT-549; Hs-578T; MOLT-4; K562; A498; MCF7; SF-539; HCC 2998; HL-60.
Holding throughout (experiment): DTP human tumour cell line panel, 48 h

Molecules are shown by their SMILES.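 48-hour exposure; five concentrations; linearly interpolated endpoints. Here, GI50 denotes the concentration required for 50% inhibition of growth.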 Activity calls are given as the source filed them. Rule as the data show it: active = GI50 up to about 1.1 µM and inactive = higher. Where only a bound is given, the exact number is not on record here.

For `CC(C)(C)/C(O)=C\c1nc2ccc(C(F)(F)F)cc2[nH]c1=O`, the GI50 in the assay with U-251, with MDA-MB-231, with HOP-62, in the assay with SK-MEL-28, in the assay on PC-3 and in the assay on A549 was > 100 µM (inactive) throughout. For the same compound, the GI50 with SR, in the assay with UO-31, in the assay on LOX IMVI, in the assay on UACC-62, in the assay on SK-MEL-2 and with BT-549 was > 100 µM (inactive) throughout. Moreover, the GI50 in the assay with Hs-578T, in the assay with MOLT-4, in the assay on K562 and in the assay on A498 was > 100 µM (inactive) in each case.

Consider `O=C1C[C@@H](c2ccccc2)O[C@@H](c2ccccc2)C1`, for which the GI50 with U-251, in the assay on MDA-MB-231, in the assay on HOP-62, in the assay with PC-3, with A549 and with MCF7 was > 100 µM (inactive) each time. The GI50 with UO-31, with LOX IMVI, in the assay on UACC-62, in the assay on SK-MEL-2, in the assay with SF-539 and in the assay on BT-549 was > 100 µM (inactive) each time. The GI50 in the assay with Hs-578T, in the assay on MOLT-4, in the assay on HCC 2998 and in the assay with K562 was > 100 µM (inactive) each time.

On to `N=C(N)C(/N=N\c1ccccc1)C(N)=O` (configuration not stated), for which the GI50 in the assay with U-251, in the assay with MDA-MB-231, in the assay on HOP-62, in the assay on SK-MEL-28, in the assay on PC-3 and in the assay on A549 was > 100 µM (inactive) in each case. Moreover, the GI50 is > 100 µM (inactive) in the assay with MCF7; > 100 µM (inactive) in the assay on UO-31; 83 µM (inactive) with LOX IMVI; > 100 µM (inactive) with HL-60; 43.3 µM (inactive) with UACC-62; 66.1 µM (inactive) with SK-MEL-2. For the same compound, the GI50 in the assay with BT-549 is > 100 µM (inactive); in the assay on Hs-578T, > 100 µM (inactive); in the assay on MOLT-4, > 100 µM (inactive); in the assay with HCC 2998, > 100 µM (inactive); in the assay with K562, 35.9 µM (inactive); with A498, 66.5 µM (inactive).

Consider `CCCCn1c(CSc2ccc(Cl)cc2)c(C(=O)OCC)c2cc(OC)c(Br)cc21`, for which the GI50 in the assay with U-251, in the assay with MDA-MB-231, in the assay on HOP-62, in the assay on SK-MEL-28, with PC-3 and in the assay with A549 was > 100 µM (inactive) throughout. Also, the GI50 with SR is 88.7 µM (inactive); in the assay on UO-31, > 100 µM (inactive); in the assay on LOX IMVI, > 100 µM (inactive); in the assay with HL-60 it was > 100 µM (inactive); in the assay on UACC-62, > 100 µM (inactive); with SK-MEL-2, > 100 µM (inactive). Also, the GI50 in the assay with BT-549, in the assay with Hs-578T, with MOLT-4, with HCC 2998, with K562 and with A498 was > 100 µM (inactive) each time.

As to `COc1ccc2c(c1)O[C@@H]1[C@@H](OC3OC(CO)C(O)C(O)C3O)Oc3cc(OC)c(OC)cc3[C@]1(O)C2=O` (some centres not stated), the GI50 in the assay with U-251 was > 100 µM (inactive); in the assay with MDA-MB-231, > 100 µM (inactive); in the assay on HOP-62 it was > 100 µM (inactive); in the assay on SK-MEL-28, 25.8 µM (inactive); with PC-3, > 100 µM (inactive); in the assay with A549, > 100 µM (inactive). Besides, the GI50 is > 100 µM (inactive) in the assay with SR; > 100 µM (inactive) with UO-31; > 100 µM (inactive) with LOX IMVI; 1.11 µM (active) in the assay with HL-60; > 100 µM (inactive) in the assay on UACC-62; > 100 µM (inactive) in the assay with SK-MEL-2. The GI50 in the assay with SF-539, in the assay with BT-549, in the assay on Hs-578T, in the assay with MOLT-4, in the assay with HCC 2998 and with K562 was > 100 µM (inactive) throughout. Further, the GI50 with A498 is > 100 µM (inactive).

Turning to `Cc1ccc(S(=O)(=O)NC(=O)NC(Cc2ccc(O)cc2)C(=O)O)cc1` (configuration not stated), the GI50 in the assay with U-251, in the assay on MDA-MB-231, with HOP-62, in the assay on SK-MEL-28, in the assay with PC-3 and in the assay with A549 was > 100 µM (inactive) each time. For the same compound, the GI50 in the assay with SR, in the assay on UO-31, in the assay with LOX IMVI, in the assay with HL-60, in the assay with SK-MEL-2 and in the assay on SF-539 was > 100 µM (inactive) in each case. The GI50 in the assay with BT-549, with Hs-578T, with MOLT-4 and with K562 was > 100 µM (inactive) in each case.

`Cn1c(=O)cc(NCc2ccc(Cl)cc2)[nH]c1=O`: the GI50 with U-251 is 40.3 µM (inactive); in the assay on MDA-MB-231 it was 49.2 µM (inactive); in the assay with HOP-62, 22.4 µM (inactive); in the assay with SK-MEL-28, > 100 µM (inactive); in the assay on PC-3, > 100 µM (inactive); in the assay with A549, > 100 µM (inactive). Moreover, the GI50 is 31.9 µM (inactive) in the assay on MCF7; 51.5 µM (inactive) in the assay on UO-31; > 100 µM (inactive) in the assay on LOX IMVI; 30.8 µM (inactive) with UACC-62; > 100 µM (inactive) with SK-MEL-2; 32.4 µM (inactive) in the assay on SF-539. Further, the GI50 in the assay on BT-549 is 76.9 µM (inactive); in the assay on Hs-578T, 18.8 µM (inactive); with HCC 2998 it was 99.5 µM (inactive); in the assay with K562, > 100 µM (inactive); in the assay on A498 it was > 100 µM (inactive).

Consider `CCN(CC)c1c(-c2c(OC(C)C)c(=O)c2=O)c(=O)n2ccsc2c1OC(C)=O`, for which the GI50 in the assay on U-251, in the assay with MDA-MB-231, with HOP-62, in the assay with SK-MEL-28, in the assay on PC-3 and in the assay with SR was > 100 µM (inactive) each time. Also, the GI50 with UO-31 was > 100 µM (inactive); in the assay on LOX IMVI, > 100 µM (inactive); in the assay with HL-60 it was 85.3 µM (inactive); with UACC-62, > 100 µM (inactive); with SK-MEL-2 it was > 100 µM (inactive); with BT-549, > 100 µM (inactive). Moreover, the GI50 in the assay on Hs-578T is 17.8 µM (inactive); in the assay with MOLT-4, > 100 µM (inactive); with HCC 2998 it was > 100 µM (inactive); in the assay with K562 it was > 100 µM (inactive); in the assay on A498, > 100 µM (inactive).

Source of the values: ChEMBL document CHEMBL1201862, “PubChem BioAssay data set” (2004).
